Reference: ChEMBL document CHEMBL4673222, “Discovery of a Bioactive Inhibitor with a New Scaffold for Cystathionine γ-Lyase” (J Med Chem, 2019)
Calls of active or inactive are those of the source. The rule behind the calls is not given here.

Tests used:
[1] = target: T1, Cystathionine gamma-lyase (Homo sapiens, UniProt P32929); assay: Inhibition of human CSE using L-Cys as the substrate by tandem well based HTS assay
[2] = target: T1, Cystathionine gamma-lyase; assay: Inhibition of human CSE using H-Cys as the substrate by tandem well based HTS assay
[3] = target: T1, Cystathionine gamma-lyase; assay: Inhibition of human CSE using H-Cys as the substrate by LC/MS/MS-based assay
[4] = target: T1, Cystathionine gamma-lyase; assay: Inhibition of human CSE using L-Cys as the substrate in presence of 0.01% Triton X-100 by tandem well based HTS assay
[5] = target: T1, Cystathionine gamma-lyase; assay: Inhibition of human CSE using L-Cys as the substrate in presence of 0.025% Triton X-100 by tandem well based HTS assay
[6] = Binding affinity to H2S assessed as absorbing of released H2S up to 100 uM in presence of NaHS as H2S donor; conditions: dose microM <=100
[7] = Binding affinity to H2S assessed as absorbing of released H2S at 200 uM in presence of NaHS as H2S donor
Homo sapiens [8] = species: Homo sapiens; assay: Selectivity index, ratio of IC50 for human CBS to IC50 for human CSE
Homo sapiens [9] = species: Homo sapiens; assay: Selectivity index, ratio of IC50 for human CBS to IC50 for human DDC
[10] = target: T1, Cystathionine gamma-lyase; assay: Inhibition of human CSE expressed in mouse RAW264.7 cells assessed as reduction in amount of released H2S level at >=200 uM by lead acetate method; type: cell-based; conditions: dose microM >=200
[11] = target: Cystathionine gamma-lyase (Mus musculus) (UniProt Q8VCN5); assay: Inhibition of CSE in mouse RAW264.7 cells assessed as reduction in amount of released H2S level at >= 200 uM by lead acetate method; type: cell-based; conditions: dose microM >=200
Cystathionine gamma-lyase (Mus musculus), sequence (Q8VCN5 whole entry): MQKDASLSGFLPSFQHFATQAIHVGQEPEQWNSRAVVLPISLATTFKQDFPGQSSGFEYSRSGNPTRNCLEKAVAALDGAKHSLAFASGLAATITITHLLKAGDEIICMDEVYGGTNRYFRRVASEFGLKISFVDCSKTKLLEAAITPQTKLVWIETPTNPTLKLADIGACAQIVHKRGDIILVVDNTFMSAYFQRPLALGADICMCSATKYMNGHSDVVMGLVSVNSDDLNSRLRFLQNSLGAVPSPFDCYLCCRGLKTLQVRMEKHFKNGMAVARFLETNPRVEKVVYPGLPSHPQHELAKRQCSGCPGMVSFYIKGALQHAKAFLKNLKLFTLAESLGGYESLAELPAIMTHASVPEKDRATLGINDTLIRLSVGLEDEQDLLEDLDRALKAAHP

[12] = target: Cystathionine gamma-lyase (Mus musculus, UniProt Q8VCN5); assay: Inhibition of CSE in mouse RAW264.7 cells assessed as reduction in endogenous H2S level by AzMC probe based fluorescence assay; type: cell-based
Cystathionine gamma-lyase (Mus musculus, UniProt Q8VCN5), sequence (Q8VCN5 whole entry): as above

T1 sequence (P32929 whole entry): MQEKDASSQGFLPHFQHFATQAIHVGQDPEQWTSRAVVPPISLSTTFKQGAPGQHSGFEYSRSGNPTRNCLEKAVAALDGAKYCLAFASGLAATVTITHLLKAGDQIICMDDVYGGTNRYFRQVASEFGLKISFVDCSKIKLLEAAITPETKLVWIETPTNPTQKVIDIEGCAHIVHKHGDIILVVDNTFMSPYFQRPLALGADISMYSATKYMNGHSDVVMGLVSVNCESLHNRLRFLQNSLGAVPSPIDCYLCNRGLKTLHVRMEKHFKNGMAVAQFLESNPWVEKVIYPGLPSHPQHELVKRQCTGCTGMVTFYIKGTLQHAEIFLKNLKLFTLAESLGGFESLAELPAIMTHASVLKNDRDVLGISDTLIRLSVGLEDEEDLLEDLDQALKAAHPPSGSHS

| Compound | IC50 [1] [µM] | also measured |
| --- | --- | --- |
| Cc1nc2c(N)nc(N)nc2nc1O | < 50 |  |
| O=[N+]([O-])c1ccc(O)c2ncccc12 [NITROXOLINE] | 8 | IC50 [2]: 10.7 µM; IC50 [3]: 6 µM; inhibition [4]: Active; inhibition [5]: Active; Activity [6]: inactive; Activity [7]: 35%; Ratio IC50 (Homo sapiens [8]): 62; Ratio IC50 (Homo sapiens [9]): 12 |
| CCNC1=CC(=O)c2ncccc2C1=O | < 50 |  |
| O=C(O)c1ccccc1O [SALICYLIC ACID] | > 200 |  |
| O=C(O)c1cc(/N=N/c2ccc(O)c(C(=O)O)c2)ccc1O [OLSALAZINE] | > 200 |  |
| C#CCC(N)C(=O)O (racemic) |  | inhibition [10]: Active; inhibition [11]: Active; IC50 [12]: 371 µM |
| Cc1ccc([S+]([O-])c2ccc([N+](=O)[O-])c3nonc23)cc1 (centres undefined) | < 50 |  |

The next lines start with results.

| IC50 [1] [µM] | Compound | also measured |
| --- | --- | --- |
| < 50 | NC1=C(Br)C(=O)c2ncccc2C1=O |  |
| < 50 | CC1OC2CC(=O)OC2C2=C1C(=O)c1c(O)cccc1C2=O (centres undefined) |  |
| < 50 | Nc1ccc(Cc2ccc(NC3C(=O)c4ccccc4C(=O)C3Cl)cc2)cc1 (centres undefined) |  |
| < 50 | NC1=CC(=O)c2cccnc2C1=O |  |
| < 50 | O=C1c2ccccc2C(=O)c2sc(Nc3ccc(Cl)cc3)nc21 |  |
| < 50 | O=C1C(Cl)=C(N2CCN(C3=C(Cl)C(=O)c4ccccc4C3=O)CC2)C(=O)c2ccccc21 |  |
| 59.9 | CC1=CC(=C(c2cc(C)c(O)c(C(=O)O)c2)c2cc(C)c(O)c(C(=O)O)c2)C=C(C(=O)O)C1=O |  |
